Assay results published in US8309721B2, “HSP90 inhibitory carbazole derivatives, compositions containing same and use thereof” (Sanofi, priority 2008, dated 2012).
Where a name gives a salt, the structure may show the parent alone.

Assays:
Hsp82 = Hsp82 (Saccharomyces cerevisiae, UniProt P02829); assay: Hsp82/ATPase test (malachite green or PK/LDH coupled method); assay type: biochemical; settings: 1 μM Hsp82, 250 μM ATP, 37° C.; read-out: Hsp82 ATPase IC50
Protocol: The biochemical activity of the compounds can in particular be evaluated by means of the “Hsp82/ATPase” test described below: The inorganic phosphate released during the hydrolysis of ATP by the ATPase activity of Hsp82 is quantified by the malachite green method. In the presence of this reagent, formation of the inorganic phosphate-molybdate-malachite green complex, which absorbs at a wavelength of 620 nm, occurs. The products to be evaluated are incubated in a reaction volume of 30 μl, in the presence of 1 μM Hsp82 and of 250 μM of substrate (ATP) in a buffer composed of 50 mM Hepes-NaOH (pH 7.5), 1 mM DTT, 5 mM MgCl2 and 50 mM KCl at 37° C. for 60 min. In parallel, an inorganic phosphate range of between 1 and 40 μM is made up in the same buffer. […] After incubation at ambient temperature for 20 min, the absorbance of the various wells is measured using a microplate reader at 620 nm. The inorganic phosphate concentration of each sample is then calculated from the standard curve. The ATPase activity of Hsp82 is expressed as concentration of inorganic phosphate produced in 60 minutes. The effect of the various products tested is expressed as percentage inhibition of the ATPase activity. The formation of ADP due to the ATPase activity of Hsp82 was used to develop another method for evaluating the enzyme activity of this enzyme by application of an enzymatic coupling system involving pyruvate kinase (PK) and lactate dehydrogenase (LDH). In this kinetic-type spectrophotometric method, PK catalyses the formation of ATP and of pyruvate from phosphoenol pyruvate (PEP) and the ADP produced by Hsp82. The pyruvate formed, which is a substrate for LDH, is subsequently converted to lactate in the presence of NADH. In this case, the decrease in the NADH concentration, measured through the decrease in absorbance at the wavelength of 340 nm, is proportional to the concentration of ADP produced by Hsp82. The products tested are incubated in a reaction volume of 100 μl of buffer composed of 100 mM Hepes-NaOH (pH 7.5), 5 mM MgCl2, 1 mM DTT, 150 mM KCl, 0.3 mM NADH, 2.5 mM PEP and 250 μM ATP. This mixture is preincubated at 37° C. for 30 minutes before the addition of 3.77 units of LDH and 3.77 units of PK. The reaction is initiated by addition of the product to be evaluated, in varying concentrations, and of Hsp82, at the concentration of 1 μM. The enzymatic activity of Hsp82 is then measured continuously, in a microplate reader, at 37° C., at the wavelength of 340 nm. The initial rate of the reaction is obtained by measuring the slope of the tangent to the origin of the curve recorded. The enzymatic activity is expressed in μM of ADP formed per minute. The effect of the various products tested is expressed as percentage inhibition of the ATPase activity according to the codification below: […]

[1] = tested on: Her2 receptor expression at the surface of SKBr3 cells; assay: phenotypic SKBr3/HER2 cell test (Her2 surface expression by flow cytometry); assay type: cell-based; settings: Homo sapiens, SK-BR-3, 24 h incubation, inhibition of Her2 expression
Protocol: The cellular activity of the compounds can in particular be evaluated by means of the phenotypic “SKBr3/HER2” cell test described below:
The SKBr3 […] adenocarcinoma cells, overexpressing the Her2 tyrosine kinase receptor, originate from the ATCC (HTB-30) and are cultured in McCoy's 5A medium supplemented with 10% FBS and 1% L-glutamine.
The cells are seeded in 12-well plates at a proportion of 125 000 cells per well in 1 ml of complete medium. The following day, the products are added at varying concentrations. After incubation for 24 h, the cells are trypsinized, washed with PBS and incubated with 100 ng of anti-Her2 antibody coupled to PE (Phycoerythrin) (BD 340552) for 30 minutes at 4° C. in the dark. The fluorescence due to the expression of the Her2 receptor at the surface of the cells is then read using a FACS Calibur flow cytometer (Becton-Dickinson). The percentage inhibition of Her2 expression as a function of the concentrations of product tested is fitted by the nonlinear regression technique (XLfit, equation 205) in order to measure an IC50 for each product.

Hsp82, sequence (P02829 whole entry): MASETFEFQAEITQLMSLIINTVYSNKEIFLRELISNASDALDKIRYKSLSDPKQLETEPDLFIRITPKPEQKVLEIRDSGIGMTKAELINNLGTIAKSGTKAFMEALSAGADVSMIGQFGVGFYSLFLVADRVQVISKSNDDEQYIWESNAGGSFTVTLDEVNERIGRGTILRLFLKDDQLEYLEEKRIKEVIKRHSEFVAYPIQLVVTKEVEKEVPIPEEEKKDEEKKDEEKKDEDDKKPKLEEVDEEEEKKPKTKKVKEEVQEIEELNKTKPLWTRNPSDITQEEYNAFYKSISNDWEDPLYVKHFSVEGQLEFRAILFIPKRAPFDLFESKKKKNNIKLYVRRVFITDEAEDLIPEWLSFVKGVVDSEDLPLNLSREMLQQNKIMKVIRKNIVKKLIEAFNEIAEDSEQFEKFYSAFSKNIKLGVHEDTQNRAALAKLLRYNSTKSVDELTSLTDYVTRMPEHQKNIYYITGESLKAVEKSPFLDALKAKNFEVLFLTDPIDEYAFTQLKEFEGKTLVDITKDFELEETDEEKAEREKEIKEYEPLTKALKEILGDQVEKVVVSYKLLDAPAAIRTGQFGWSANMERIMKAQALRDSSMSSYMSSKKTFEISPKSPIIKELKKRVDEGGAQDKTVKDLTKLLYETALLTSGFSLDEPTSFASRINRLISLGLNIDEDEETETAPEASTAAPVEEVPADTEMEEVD

| Structure (SMILES) | IC50 (Hsp82) | IC50 [1] |
| --- | --- | --- |
| NC(=O)c1ccc(-n2c3ccccc3c3c(-c4cnc5ccccc5c4)cccc32)cc1N[C@H]1CC[C@H](O)CC1 [Example 2, 2-(4-trans-hydroxycyclohexylamino)-4-[(4-quinolin-3-yl)-9H-carbazol-9-yl]benzamide] | < 1 µM | < 1 µM |
| CC(O)CNc1cc(-n2c3ccccc3c3c(-c4nc5ccc(F)cc5[nH]4)cccc32)ccc1C(N)=O (racemic) [Example 40, 4-[4-(6-fluoro-1H-benzimidazol-2-yl)-9H-carbazol-9-yl]-2-(2(R,S)-hydroxypropylamino)benzamide] | < 1 µM | < 1 µM |
| CC(C)(O)CCNc1cc(-n2c3ccccc3c3c(-c4nc5ccc(F)cc5[nH]4)cccc32)ccc1C(N)=O [Example 61, 4-[4-(6-fluoro-1H-benzimidazol-2-yl)-9H-carbazol-9-yl]-2-(3-hydroxy-3-methylbutylamino)benzamide] | 1 to 10 µM | < 1 µM |
| NC(=O)c1ccc(-n2c3ccccc3c3c(-c4nc5ccc(F)cc5[nH]4)cccc32)cc1NC1CCCCC1 [Example 6, 2-cyclohexylamino-4-[4-(6-fluoro-1H-benzimidazol-2-yl)-9H-carbazol-9-yl]benzamide] | 1 to 10 µM | < 1 µM |
| NC(=O)c1ccc(-n2c3ccccc3c3c(-c4nc5ccc(F)cc5[nH]4)cccc32)cc1NCCO [Example 42, 4-[4-(6-fluoro-1H-benzimidazol-2-yl)-9H-carbazol-9-yl]-2-(2-hydroxyethylamino)benzamide] | < 1 µM | < 1 µM |
| CC(=O)NCCNc1cc(-n2c3ccccc3c3c(-c4nc5ccc(F)cc5[nH]4)cccc32)ccc1C(N)=O [Example 17, 2-(2-acetylaminoethylamino)-4-[4-(6-fluoro-1H-benzimidazol-2-yl)-9H-carbazol-9-yl]benzamide] | < 1 µM | < 1 µM |
| Nc1n[nH]c2cc(-n3c4ccccc4c4c(-c5nc6ccc(F)cc6[nH]5)cccc43)ccc12 [Example 12, 6-[4-(6-fluoro-1H-benzimidazol-2-yl)-9H-carbazol-9-yl]-1H-indazol-3-ylamine] | 1 to 10 µM | 1 to 10 µM |
| NC(=O)c1ccc(-n2c3ccccc3c3c(-c4nc5ccc(F)cc5[nH]4)cccc32)cc1NCCN1CCCC1 [Example 11, 4-[4-(6-fluoro-1H-benzimidazol-2-yl)-9H-carbazol-9-yl]-2-(2-pyrrolidin-1-ylethylamino)benzamide] | < 1 µM | < 1 µM |
| NC(=O)c1ccc(-n2c3ccccc3c3c(-c4cnc5ccccc5c4)cccc32)cc1NCCC1(O)CCCC1 [Example 64] | < 1 µM | < 1 µM |
| NC(=O)c1ccc(-n2c3ccccc3c3c(-c4ccc(CO)nc4)cccc32)cc1N[C@H]1CC[C@H](O)CC1 [Example 29, 2-[(4-trans-hydroxycyclohexyl)amino]-4-{4-[6-(hydroxymethyl)pyridin-3-yl]-9H-carbazol-9-yl}benzamide] | < 1 µM | < 1 µM |
| NCCNc1cc(-n2c3ccccc3c3c(-c4nc5ccc(F)cc5[nH]4)cccc32)ccc1C(N)=O [Example 18, 2-(2-aminoethylamino)-4-[4-(6-fluoro-1H-benzimidazol-2-yl)-9H-carbazol-9-yl]benzamide] | < 1 µM | 1 to 10 µM |
| CC(CCO)Nc1cc(-n2c3ccccc3c3c(-c4cnc5ccccc5c4)cccc32)ccc1C(N)=O (racemic) [Example 41, 2-[1-hydroxybutan-3(R,S)-ylamino]-4-[4-(quinolin-3-yl)-9H-carbazol-9-yl]benzamide] | < 1 µM | < 1 µM |
| NC(=O)c1ccc(-n2c3ccccc3c3c(-c4nc5ccc(F)cc5[nH]4)cccc32)nc1 [Example 19, 6-[4-(6-fluoro-1H-benzimidazol-2-yl)carbazol-9-yl]nicotinamide] | 1 to 10 µM | 1 to 10 µM |
| CNC(=O)CNc1cc(-n2c3ccccc3c3c(-c4nc5ccc(F)cc5[nH]4)cccc32)ccc1C(N)=O [Example 44, 4-[4-(6-fluoro-1H-benzimidazol-2-yl)-9H-carbazol-9-yl]-2-(methylcarbamoylmethylamino)benzamide] | 1 to 10 µM | < 1 µM |
| CC(=O)O[C@H]1CC[C@H](Nc2cc(-n3c4ccccc4c4c(-c5nc6ccc(F)cc6[nH]5)cccc43)ccc2C(N)=O)CC1 [Example 5, acetic acid 4-{2-carbamoyl-5-[4-(6-fluoro-1H-benzimidazol-2-yl)-9H-carbazol-9-yl]phenylamino}-trans-cyclohexyl ester] | 1 to 10 µM | < 1 µM |
| NC(=O)c1ccc(-n2c3ccccc3c3c(-c4cnc(N)nc4)cccc32)cc1NCCCO [Example 56, 4-[4-(2-aminopyrimidin-5-yl)-9H-carbazol-9-yl]-2-[(3-hydroxypropyl)amino]benzamide hydrochloride] | < 1 µM |  |
| Nc1noc2cc(-n3c4ccccc4c4c(-c5nc6ccc(F)cc6[nH]5)cccc43)ccc12 [Example 13, 6-[4-(6-fluoro-1H-benzimidazol-2-yl)-9H-carbazol-9-yl]-1,2-benzisoxazol-3-ylamine] | 1 to 10 µM | 1 to 10 µM |
| NC(=O)c1ccc(-n2c3ccccc3c3c(-c4nc5ccc(F)cc5[nH]4)cccc32)cc1NCc1ccco1 [Example 48, 4-[4-(6-fluoro-1H-benzimidazol-2-yl)-9H-carbazol-9-yl]-2-[(furan-2-ylmethyl)amino]benzamide] | 1 to 10 µM | < 1 µM |
| C[C@H](NC(=O)OC(C)(C)C)C(=O)O[C@H]1CC[C@H](Nc2cc(-n3c4ccccc4c4c(-c5nc6ccc(F)cc6[nH]5)cccc43)ccc2C(N)=O)CC1 [Example 22, 2(S)-tert-butoxycarbonylaminopropionic acid 4-trans-{2-carbamoyl-5-[4-(6-fluoro-1H-benzimidazol-2-yl)-9H-carbazol-9-yl]phenylamino}cyclohexyl ester] | 1 to 10 µM | < 1 µM |
| NC(=O)c1ccc(-n2c3ccccc3c3c(-c4nc5ccc(F)cc5[nH]4)cccc32)cc1N[C@H]1CC[C@H](O)CC1 [Example 1, 4-[4-(6-fluoro-1H-benzimidazol-2-yl)-9H-carbazol-9-yl]-2-(4-trans-hydroxycyclohexylamino)benzamide] | < 1 µM | < 1 µM |
| COC[C@H](C)Nc1cc(-n2c3ccccc3c3c(-c4nc5ccc(F)cc5[nH]4)cccc32)ccc1C(N)=O [Example 54] | < 1 µM | < 1 µM |
| NCCCC[C@@H](N)C(=O)O[C@H]1CC[C@H](Nc2cc(-n3c4ccccc4c4c(-c5nc6ccc(F)cc6[nH]5)cccc43)ccc2C(N)=O)CC1 (stereo in doubt) [Example 36, trifluoroacetate of the 4-trans-{2-carbamoyl-5-[4(6-fluoro-1H-benzimidazol-2-yl)-9H-carbazol-9-yl]phenylamino}cyclohexyl ester of (S)-2,6-diaminohexanoic acid] | < 1 µM | < 1 µM |
| NC(=O)c1ccc(-n2c3ccccc3c3c(-c4nc5ccc(F)cc5[nH]4)cccc32)cc1F [Example 14, 2-fluoro-4-[4-(6-fluoro-1H-benzimidazol-2-yl)-9H-carbazol-9-yl]benzamide] | 1 to 10 µM | < 1 µM |
